The experiment concerns the target T1, IRAK-4 (Homo sapiens, UniProt Q9NWZ3).
T1 sequence (Q9NWZ3 1-460): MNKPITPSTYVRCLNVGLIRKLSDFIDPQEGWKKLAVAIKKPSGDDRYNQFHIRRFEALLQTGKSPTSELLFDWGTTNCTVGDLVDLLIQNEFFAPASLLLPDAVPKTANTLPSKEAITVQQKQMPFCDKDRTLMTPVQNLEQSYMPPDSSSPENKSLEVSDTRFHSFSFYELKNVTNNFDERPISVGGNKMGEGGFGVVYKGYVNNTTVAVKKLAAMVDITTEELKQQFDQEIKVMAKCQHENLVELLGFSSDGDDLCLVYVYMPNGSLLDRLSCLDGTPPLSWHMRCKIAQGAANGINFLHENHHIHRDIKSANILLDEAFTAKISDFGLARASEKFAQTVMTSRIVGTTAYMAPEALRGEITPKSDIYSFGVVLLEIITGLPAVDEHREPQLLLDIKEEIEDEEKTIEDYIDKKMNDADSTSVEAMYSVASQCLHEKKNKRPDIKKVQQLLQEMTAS
Description: IRAK-4 ELISA, PBMC degradation. The experiment is classed as cell-based. More on the design: endogenous in cells; host or cells: PBMC. Particulars: treated overnight. Summed up: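 Steps: seed cells (OCI-Ly10 1×10^6/ml; PBMC 2×10^6/ml); add compound the same day; incubate overnight; lyse; quantify IRAK-4 by matched-pair ELISA.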
Background: An ELISA detects its analyte on a solid surface through an enzyme-linked reagent.

Where only a bound is given, the exact number is not on record here.

One may read the DC50 as the concentration at which degradation of the target reaches its halfway point. Broadly, the Dmax is the greatest extent of degradation seen.

On to `CC(C)Oc1cc2nn(C3CCN(CC4(F)CN(c5ccc(C(=O)NC6CCC(=O)NC6=O)c(F)c5)C4)CC3)cc2cc1NC(=O)c1cnn2cccnc12` (stereo not drawn) [Example 293], for which the DC50 lay in the range of 1 to 5 nM; the Dmax was at least 90%; the “PBMC DC90” value was “B (B represents a DC90 value ≥10.0 nM and <25.0 nM)”.
For `CC(C)Oc1cc2c(cc1NC(=O)c1cnn3cccnc13)CN(C1CCN(CC3(F)CN(c4ccc(C(=O)NC5CCC(=O)NC5=O)c(F)c4)C3)CC1)C2=O` (stereo not drawn) [Example 297], the DC50 lay within 1 to 5 nM; the Dmax is at least 90%; the “PBMC DC90” value was “B (B represents a DC90 value ≥10.0 nM and <25.0 nM)”.
As to `O=C1CCC(NC(=O)c2ccc(N3CC(F)(CN4CCC(N5Cc6cc(NC(=O)c7cnn8cccnc78)c(OCC7CC7)cc6C5=O)CC4)C3)cc2F)C(=O)N1` (stereo not drawn) [Example 298], the DC50 was at least 10 nM, the Dmax is at least 90% and the “PBMC DC90” value is “D (D represents a DC90 value ≥50 nM)”.
On to `CC(C)Oc1cc2c(cc1NC(=O)c1cnn3ccc(N4CCOCC4)nc13)CN(C1CCC(N(C)C3CN(c4ccc5c(c4)CN(C4CCC(=O)NC4=O)C5=O)C3)CC1)C2=O` (stereo not drawn) [Example 315], for which the half-maximal degradation concentration (DC50) is 5 to 10 nM, the Dmax was under 70% and the “PBMC DC90” value is given as “D (D represents a DC90 value ≥50 nM)”.
Consider `CC(C)Oc1cc2c(cc1NC(=O)c1cnn3cccnc13)CN(C1CCC(N(C)C3CCN(c4ccc5c(c4)C(=O)N(C4CCC(=O)NC4=O)C5=O)CC3)CC1)C2=O` (stereo not drawn) [Example 316], for which the DC50 is under 1 nM, the Dmax is at least 90% and the “PBMC DC90” value is “A (A represents a DC90 value <10.0 nM)”.
In the case of `CC(C)Oc1cc2nn([C@H]3CC[C@H](N(C)C4CCN(c5ccc6c(c5)C(=O)N(C5CCC(=O)NC5=O)C6=O)CC4)CC3)cc2cc1NC(=O)c1cnn2cccnc12` (stereo partly drawn) [Example 317], the DC50 was under 1 nM, the Dmax is at least 90% and the “PBMC DC90” value is on record as “A (A represents a DC90 value <10.0 nM)”.
In the case of `CC(C)Oc1cc2nn([C@H]3CC[C@H](N(C)C4CN(c5ccc6c(c5)C(=O)N(C5CCC(=O)NC5=O)C6=O)C4)CC3)cc2cc1NC(=O)c1cnn2cccnc12` (stereo partly drawn) [Example 318], the half-maximal degradation concentration (DC50) was under 1 nM, the Dmax was at least 90% and the “PBMC DC90” value is “A (A represents a DC90 value <10.0 nM)”.
On to `CCN(C1CN(c2ccc3c(c2)C(=O)N(C2CCC(=O)NC2=O)C3=O)C1)[C@H]1CC[C@H](n2cc3cc(NC(=O)c4cnn5cccnc45)c(OC(C)C)cc3n2)CC1` (stereo partly drawn) [Example 319], for which the DC50 was 1 to 5 nM, the Dmax was in the range of 80 to 90% and the “PBMC DC90” value was “A (A represents a DC90 value <10.0 nM)”.
For the molecule `CCN(C1CN(c2cccc3c2C(=O)N(C2CCC(=O)NC2=O)C3=O)C1)[C@H]1CC[C@H](n2cc3cc(NC(=O)c4cnn5cccnc45)c(OC(C)C)cc3n2)CC1` (stereo partly drawn) [Example 320], the DC50 is at least 10 nM, the Dmax fell in the range of 80 to 90% and the “PBMC DC90” value is “D (D represents a DC90 value ≥50 nM)”.
Consider `COc1cc(N2CC(N(C)[C@H]3CC[C@H](N4Cc5cc(NC(=O)c6cnn7cccnc67)c(OC(C)C)cc5C4=O)CC3)C2)cc2c1C(=O)N(C1CCC(=O)NC1=O)C2=O` (stereo partly drawn) [Example 321], for which the DC50 lay in the range of 1 to 5 nM, the Dmax was at least 90% and the “PBMC DC90” value was “A (A represents a DC90 value <10.0 nM)”.
In the case of `CCN(C1CN(c2ccc(C(=O)NC3CCC(=O)NC3=O)c(F)c2)C1)[C@H]1CC[C@H](n2cc3cc(NC(=O)c4cnn5cccnc45)c(OC(C)C)cc3n2)CC1` (stereo partly drawn) [Example 322], the DC50 was in the range of 1 to 5 nM, the Dmax was at least 90% and the “PBMC DC90” value is recorded as “A (A represents a DC90 value <10.0 nM)”.
For the molecule `CN(C1CCC(n2cc3cc(NC(=O)c4cnn5cccnc45)c(OCC4CC4)cc3n2)CC1)C1CCN(c2ccc3c(c2)C(=O)N(C2CCC(=O)NC2=O)C3=O)CC1` (stereo not drawn) [Example 323], the DC50 is under 1 nM, the Dmax was at least 90% and the “PBMC DC90” value is given as “A (A represents a DC90 value <10.0 nM)”.
For the molecule `CN(C1CN(c2ccc3c(c2)CN(C2CCC(=O)NC2=O)C3=O)C1)[C@H]1CC[C@H](n2cc3cc(NC(=O)c4cnn5cccnc45)c(OCC4CC4)cc3c2)CC1` (stereo partly drawn) [Example 324], the DC50 is under 1 nM, the Dmax is at least 90% and the “PBMC DC90” value is recorded as “A (A represents a DC90 value <10.0 nM)”.
As to `CCN(C1CCC(n2cc3cc(NC(=O)c4cnn5cccnc45)c(OCC4CC4)cc3n2)CC1)C1CN(c2ccc3c(c2)C(=O)N(C2CCC(=O)NC2=O)C3=O)C1` (stereo not drawn) [Example 325], the DC50 is 1 to 5 nM; the Dmax was at least 90%; the “PBMC DC90” value was “C (C represents a DC90 value ≥25.0 nM and <50 nM)”.
In the case of `O=C1CCC(N2C(=O)c3ccc(N4CC(N(CC(F)F)C5CCC(n6cc7cc(NC(=O)c8cnn9cccnc89)c(OCC8CC8)cc7n6)CC5)C4)cc3C2=O)C(=O)N1` (stereo not drawn) [Example 326], the DC50 lay within 1 to 5 nM; the Dmax is at least 90%; the “PBMC DC90” value is “B (B represents a DC90 value ≥10.0 nM and <25.0 nM)”.
Turning to `O=C1CCC(N2C(=O)c3ccc(N4CC(N(CC(F)(F)F)C5CCC(n6cc7cc(NC(=O)c8cnn9cccnc89)c(OCC8CC8)cc7n6)CC5)C4)cc3C2=O)C(=O)N1` (stereo not drawn) [Example 327], the DC50 was at least 10 nM, the Dmax is 80 to 90% and the “PBMC DC90” value is given as “D (D represents a DC90 value ≥50 nM)”.
For `CC(C)Oc1cc2c(cc1NC(=O)c1cnn3cccnc13)CN(C1CCC(N(C)C3CN(c4ccc(C(=O)NC5CCC(=O)NC5=O)c(F)c4)C3)CC1)C2=O` (stereo not drawn) [Example 328], in that order: under 1 nM, at least 90% and “A (A represents a DC90 value <10.0 nM)”.
Take `CC(C)Oc1cc2c(cc1NC(=O)c1cnn3cccnc13)CN(C1CCC(N(C)C3CN(c4ccc5c(c4)CN(C4CCC(=O)NC4=O)C5=O)C3)CC1)C2=O` (stereo not drawn) [Example 329]: the “PBMC DC90” value was “A (A represents a DC90 value <10.0 nM)” and the “PBMC Dmax” value was “A (A represents a Dmax value ≥90)”.
Molecule `CC(C)Oc1cc2c(cc1NC(=O)c1cnn3cccnc13)CN([C@H]1CC[C@H](N(C)C3CN(c4ccc5c(c4)CN(C4CCC(=O)NC4=O)C5=O)C3)CC1)C2=O` (stereo partly drawn) [Example 329] came in with a DC50 of under 1 nM.
`CCN(C1CCC(N2Cc3cc(NC(=O)c4cnn5cccnc45)c(OC(C)C)cc3C2=O)CC1)C1CN(c2ccc3c(c2)CN(C2CCC(=O)NC2=O)C3=O)C1` (stereo not drawn) [Example 330]: the 50% degradation concentration (DC50) is under 1 nM, the Dmax was at least 90% and the “PBMC DC90” value is listed as “A (A represents a DC90 value <10.0 nM)”.
On to `CC(C)Oc1cc2c(cc1NC(=O)c1cnn3cccnc13)CN(C1CCC(N(CC(F)F)C3CN(c4ccc5c(c4)C(=O)N(C4CCC(=O)NC4=O)C5=O)C3)CC1)C2=O` (stereo not drawn) [Example 331], for which the DC50 lay within 1 to 5 nM; the Dmax is at least 90%; the “PBMC DC90” value is “B (B represents a DC90 value ≥10.0 nM and <25.0 nM)”.
Regarding `CC(C)Oc1cc2c(cc1NC(=O)c1cnn3cccnc13)CN(C1CCC(N(CC(F)(F)F)C3CN(c4ccc5c(c4)C(=O)N(C4CCC(=O)NC4=O)C5=O)C3)CC1)C2=O` (stereo not drawn) [Example 332], the DC50 is at least 10 nM, the Dmax is at least 90% and the “PBMC DC90” value is on record as “D (D represents a DC90 value ≥50 nM)”.
As for `CN(C1CCC(N2Cc3cc(NC(=O)c4cnn5cccnc45)c(OC4CC4)cc3C2=O)CC1)C1CN(c2ccc3c(c2)C(=O)N(C2CCC(=O)NC2=O)C3=O)C1` (stereo not drawn) [Example 341], the DC50 is under 1 nM, the Dmax is at least 90% and the “PBMC DC90” value is on record as “A (A represents a DC90 value <10.0 nM)”.
With `CN(C1CCC(N2Cc3cc(NC(=O)c4cnn5cccnc45)c(OC4CC4)cc3C2=O)CC1)C1CCN(c2ccc3c(c2)C(=O)N(C2CCC(=O)NC2=O)C3=O)CC1` (stereo not drawn) [Example 342], the DC50 was under 1 nM, the Dmax is at least 90% and the “PBMC DC90” value is given as “A (A represents a DC90 value <10.0 nM)”.
Regarding `CN(C1CN(c2ccc3c(c2)C(=O)N(C2CCC(=O)NC2=O)C3=O)C1)[C@H]1CC[C@H](n2cc3cc(NC(=O)c4cnn5cccnc45)c(C4CC4)cc3n2)CC1` (stereo partly drawn) [Example 343], the DC50 was under 1 nM, the Dmax is at least 90% and the “PBMC DC90” value was “A (A represents a DC90 value <10.0 nM)”.
In the case of `CN(C1CCN(c2ccc3c(c2)C(=O)N(C2CCC(=O)NC2=O)C3=O)CC1)[C@H]1CC[C@H](n2cc3cc(NC(=O)c4cnn5cccnc45)c(C4CC4)cc3n2)CC1` (stereo partly drawn) [Example 344], the DC50 is under 1 nM, the Dmax is at least 90% and the “PBMC DC90” value is recorded as “A (A represents a DC90 value <10.0 nM)”.
Take `CN(C1CCC(N2Cc3cc(NC(=O)c4cnn5cccnc45)c(OCC4CC4)cc3C2=O)CC1)C1CN(c2ccc3c(c2)C(=O)N(C2CCC(=O)NC2=O)C3=O)C1` (stereo not drawn) [Example 345]: the half-maximal degradation concentration (DC50) was under 1 nM, the Dmax was at least 90% and the “PBMC DC90” value is recorded as “A (A represents a DC90 value <10.0 nM)”.
Take `CC(C)Oc1cc2nn([C@H]3CC[C@H](N(C)CC4(F)CN(c5ccc6c(c5)C(=O)N(C5CCC(=O)NC5=O)C6=O)C4)CC3)cc2cc1NC(=O)c1cnn2cccnc12` (stereo partly drawn) [Example 347]: the DC50 was in the range of 1 to 5 nM; the Dmax is 80 to 90%; the “PBMC DC90” value is “B (B represents a DC90 value ≥10.0 nM and <25.0 nM)”.

(Values after US20230099344A1, “COMPOUNDS AND METHODS FOR THE TARGETED DEGRADATION OF IRAK-4” (Arvinas Operations, Inc., priority 2021, published 2023).)
